The values below come from ChEMBL document CHEMBL2157944, “Evaluation of structure-derived pharmacophore of soluble epoxide hydrolase inhibitors by virtual screening” (Bioorg Med Chem Lett, 2012).

Molecules are shown by their SMILES.

Series [1] addresses T1, Bifunctional epoxide hydrolase 2 (Homo sapiens, UniProt P34913).
T1 sequence (P34913 whole entry): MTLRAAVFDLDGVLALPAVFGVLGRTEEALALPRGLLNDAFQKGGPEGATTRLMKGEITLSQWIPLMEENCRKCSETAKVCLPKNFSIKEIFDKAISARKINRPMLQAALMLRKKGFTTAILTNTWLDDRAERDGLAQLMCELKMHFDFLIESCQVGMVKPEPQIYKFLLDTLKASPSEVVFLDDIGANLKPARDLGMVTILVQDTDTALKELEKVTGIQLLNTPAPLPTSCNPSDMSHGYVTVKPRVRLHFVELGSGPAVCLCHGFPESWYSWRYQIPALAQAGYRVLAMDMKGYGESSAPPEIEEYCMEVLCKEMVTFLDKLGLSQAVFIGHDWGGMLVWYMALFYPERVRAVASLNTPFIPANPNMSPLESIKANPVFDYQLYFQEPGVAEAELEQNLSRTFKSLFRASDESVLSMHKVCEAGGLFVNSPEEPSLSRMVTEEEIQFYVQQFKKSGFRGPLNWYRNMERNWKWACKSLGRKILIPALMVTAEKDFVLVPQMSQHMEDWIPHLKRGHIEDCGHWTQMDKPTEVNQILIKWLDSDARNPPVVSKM
The series can be described thus: Inhibition of sEH using (3-Phenyl-oxiranyl)-acetic acid cyano-(6-methoxy-naphthalen-2-yl)-methyl ester) as substrate incubated for 15 mins prior to substrate addition measured every min for 15 mins by fluorimetric analysis.

Series [2] can be described thus: Solubility of the compound at >100 uM. The format is physicochemical.
Series [3] in a line: Solubility of the compound. It counts as physicochemical.

As to `O=C(Nc1cccc(Cl)c1)OCCCNS(=O)(=O)c1cccc([N+](=O)[O-])c1`, the IC50 – broadly, the midpoint of a concentration-inhibition curve – in series [1] turned out to be 3.2 µM.

As for `O=C(Nc1cccc(O)c1)OCC1c2ccccc2-c2ccccc21`, it took 5.5 µM to reach half-maximal inhibition in series [1] (IC50).

Consider `Cc1cc(-c2cnc(NCCCc3ccccn3)nc2C(C)C)on1`, for which, in series [2], the solubility entry was “Insoluble”.

Consider `NS(=O)(=O)c1ccc(CNc2ncc(-c3ccncc3)c(C3CC3)n2)cc1`, for which the solubility entry in series [3] is on record as “Insoluble”.

Compound `O=C(NCCCNc1ncc(-c2ccncc2)c(C2CC2)n1)c1ccccn1` gave an IC50 in series [1] of 25 µM.
